# According to ChEMBL document CHEMBL4145457, “Design, synthesis and biological evaluation of novel pyridine-thiazolidinone derivatives as anticancer agents: Targeting human carbonic anhydrase IX” (Eur J Med Chem, 2018):
# Legend:
# [1] = Ratio of IC50 for HEK293 cells to IC50 for human MCF7 cells; assay type: toxicity; conditions: HEK293 cells versus MCF7 cells, read-out: Ratio IC50
# Carbonic anhydrase 9 [2] = target: T1, Carbonic anhydrase 9 (Homo sapiens, UniProt Q16790); assay: Inhibition of human carbonic anhydrase 9 using 4-NPA as substrate after 3 mins by spectrophotometric analysis
# HepG2 = assay: cells; conditions: Homo sapiens, HepG2, 48 h
# Description: Cytotoxicity against human HepG2 cells after 48 hrs by MTT assay
# HEK293 = assay: Cytotoxicity against human HEK293 cells after 48 hrs by MTT assay; assay type: cell-based; conditions: HEK293, 48 h
# MCF7 = assay: Cytotoxicity against human MCF7 cells after 48 hrs by MTT assay; assay type: functional, cell-based; conditions: MCF7, 48 h
# [3] = Ratio of IC50 for HEK293 cells to IC50 for human HepG2 cells; assay type: toxicity; conditions: HEK293 cells versus HepG2 cells, read-out: Ratio IC50
# Carbonic anhydrase 2 = Carbonic anhydrase 2 (Homo sapiens, UniProt P00918); assay: Inhibition of human carbonic anhydrase 2 using 4-NPA as substrate after 3 mins by spectrophotometric analysis
# Carbonic anhydrase 9 [4] = target: T1, Carbonic anhydrase 9; assay: Binding affinity to human carbonic anhydrase 9 by spectrofluorimetric analysis
smiles,measurement,setting,value
O=C1/C(=C\c2ccccn2)S/C(=N/c2ccccc2)N1Cc1ccncc1,selectivity ratio,[1],7.6
same,IC50,Carbonic anhydrase 9 [2],6.64 µM
same,IC50,HepG2,31 µM
same,IC50,HEK293,161 µM
same,IC50,MCF7,21.1 µM
same,selectivity ratio,[3],5.2
CC(C)c1ccc(/C=C2/S/C(=N/c3ccccc3)N(Cc3ccncc3)C2=O)cc1,selectivity ratio,[1],2.5
same,IC50,Carbonic anhydrase 9 [2],63.1 µM
same,IC50,HepG2,32.3 µM
same,IC50,HEK293,137 µM
same,IC50,MCF7,53.3 µM
same,selectivity ratio,[3],4.2
O=C1/C(=C\c2ccc(Cl)cc2)S/C(=N/c2ccccc2)N1Cc1ccncc1,selectivity ratio,[1],1.1
same,IC50,Carbonic anhydrase 9 [2],40.2 µM
same,IC50,HepG2,28.8 µM
same,IC50,HEK293,42.3 µM
same,IC50,MCF7,54.9 µM
same,selectivity ratio,[3],1.4
COc1cccc2c1C(=O)c1c(O)c3c(c(O)c1C2=O)C[C@@](O)(C(=O)CO)C[C@@H]3O[C@H]1C[C@H](N)[C@H](O)[C@H](C)O1 [DOXORUBICIN],IC50,HEK293,148 µM
O=C1/C(=C\c2ccc(O)cc2)S/C(=N/c2ccccc2)N1Cc1ccncc1,selectivity ratio,[1],7.5
same,IC50,Carbonic anhydrase 9 [2],6.72 µM
same,IC50,HepG2,11.8 µM
same,IC50,HEK293,142 µM
same,IC50,MCF7,18.9 µM
same,selectivity ratio,[3],12
COc1ccc(OC)c(/C=C2/S/C(=N/c3ccccc3)N(Cc3ccncc3)C2=O)c1,selectivity ratio,[1],2.1
same,IC50,Carbonic anhydrase 9 [2],16.7 µM
same,IC50,HepG2,35.8 µM
same,IC50,HEK293,80.1 µM
same,IC50,MCF7,37 µM
same,selectivity ratio,[3],2.2
O=C1/C(=C\c2ccccc2)S/C(=N/c2ccccc2)N1Cc1ccncc1,selectivity ratio,[1],2.4
same,IC50,Carbonic anhydrase 9 [2],50.9 µM
same,IC50,HepG2,25.2 µM
same,IC50,HEK293,64.7 µM
same,IC50,MCF7,26.4 µM
same,selectivity ratio,[3],2.5
COc1ccc(/C=C2/S/C(=N/c3ccccc3)N(Cc3ccncc3)C2=O)cc1,selectivity ratio,[1],1.5
same,IC50,Carbonic anhydrase 9 [2],40.4 µM
same,IC50,HepG2,19.1 µM
same,IC50,HEK293,47.9 µM
same,IC50,MCF7,31.5 µM
same,selectivity ratio,[3],2.5
COc1cc(/C=C2/S/C(=N/c3ccccc3)N(Cc3ccncc3)C2=O)ccc1O,selectivity ratio,[1],2.4
same,IC50,Carbonic anhydrase 9 [2],60.9 µM
same,IC50,HepG2,28.6 µM
same,IC50,HEK293,67.4 µM
same,IC50,MCF7,28 µM
same,selectivity ratio,[3],2.3
O=C1CS/C(=N/c2ccccc2)N1Cc1ccncc1,selectivity ratio,[1],1.5
same,IC50,Carbonic anhydrase 9 [2],26.1 µM
same,IC50,HepG2,26 µM
same,IC50,HEK293,99.5 µM
same,IC50,MCF7,65.8 µM
same,selectivity ratio,[3],3.8
O=C1/C(=C\c2cccc(O)c2)S/C(=N/c2ccccc2)N1Cc1ccncc1,selectivity ratio,[1],3.4
same,IC50,Carbonic anhydrase 9 [2],10.8 µM
same,IC50,HepG2,17.6 µM
same,IC50,HEK293,150 µM
same,IC50,MCF7,43.6 µM
same,selectivity ratio,[3],8.5
CN(C)c1ccc(/C=C2/S/C(=N/c3ccccc3)N(Cc3ccncc3)C2=O)cc1,selectivity ratio,[1],1.6
same,IC50,Carbonic anhydrase 9 [2],32.9 µM
same,IC50,HepG2,52.6 µM
same,IC50,HEK293,122 µM
same,IC50,MCF7,76.3 µM
same,selectivity ratio,[3],2.3
CCOc1cc(/C=C2/S/C(=N/c3ccccc3)N(Cc3ccncc3)C2=O)ccc1O,selectivity ratio,[1],2.3
same,IC50,Carbonic anhydrase 9 [2],38.4 µM
same,IC50,HepG2,20.4 µM
same,IC50,HEK293,46.5 µM
same,IC50,MCF7,20.1 µM
same,selectivity ratio,[3],2.2
O=C1/C(=C\c2cccc(Cl)c2)S/C(=N/c2ccccc2)N1Cc1ccncc1,selectivity ratio,[1],2.4
same,IC50,Carbonic anhydrase 9 [2],43.5 µM
same,IC50,HepG2,28.9 µM
same,IC50,HEK293,71.8 µM
same,IC50,MCF7,29.8 µM
same,selectivity ratio,[3],2.4
Cc1ccc(/C=C2/S/C(=N/c3ccccc3)N(Cc3ccncc3)C2=O)cc1,selectivity ratio,[1],1.3
same,IC50,Carbonic anhydrase 9 [2],57.3 µM
same,IC50,HepG2,19.7 µM
same,IC50,HEK293,49.5 µM
same,IC50,MCF7,36.9 µM
same,selectivity ratio,[3],2.5
Cc1ccc(/C=C2/S/C(=N/c3ccccc3)N(Cc3ccncc3)C2=O)s1,selectivity ratio,[1],5.1
same,IC50,Carbonic anhydrase 9 [2],10 µM
same,IC50,HepG2,23.1 µM
same,IC50,HEK293,146 µM
same,IC50,MCF7,28.7 µM
same,selectivity ratio,[3],6.3
O=C1/C(=C\c2ccc(O)c(O)c2)S/C(=N/c2ccccc2)N1Cc1ccncc1,selectivity ratio,[1],18.5
same,IC50,Carbonic anhydrase 9 [2],1.84 µM
same,IC50,Carbonic anhydrase 2,27.2 µM
same,IC50,HepG2,16.2 µM
same,IC50,HEK293,230 µM
same,IC50,MCF7,12.4 µM
same,selectivity ratio,[3],14.2
same,IC50,Carbonic anhydrase 9 [4],2.32 µM
O=C1/C(=C\c2ccc3c(c2)OCO3)S/C(=N/c2ccccc2)N1Cc1ccncc1,selectivity ratio,[1],1.8
same,IC50,Carbonic anhydrase 9 [2],58.4 µM
same,IC50,HepG2,24.4 µM
same,IC50,HEK293,64.8 µM
same,IC50,MCF7,35.2 µM
same,selectivity ratio,[3],2.6
O=C1/C(=C\c2ccc([N+](=O)[O-])cc2)S/C(=N/c2ccccc2)N1Cc1ccncc1,selectivity ratio,[1],19.2
same,IC50,Carbonic anhydrase 9 [2],1.61 µM
same,IC50,Carbonic anhydrase 2,14.4 µM
same,IC50,HepG2,18.9 µM
same,IC50,HEK293,250 µM
same,IC50,MCF7,13 µM
same,selectivity ratio,[3],13.2
same,IC50,Carbonic anhydrase 9 [4],11.2 µM
S=C(NCc1ccncc1)Nc1ccccc1,selectivity ratio,[1],1.2
same,IC50,Carbonic anhydrase 9 [2],17.9 µM
same,IC50,HepG2,19.3 µM
same,IC50,HEK293,47.2 µM
same,IC50,MCF7,37.3 µM
same,selectivity ratio,[3],2.4
COc1ccc(/C=C2/S/C(=N/c3ccccc3)N(Cc3ccncc3)C2=O)cc1OC,selectivity ratio,[1],2.1
same,IC50,Carbonic anhydrase 9 [2],20.9 µM
same,IC50,HepG2,28.9 µM
same,IC50,HEK293,171 µM
same,IC50,MCF7,80.7 µM
same,selectivity ratio,[3],5.9
